Seven molecules from US20230293535A1, “ERBB/BTK INHIBITORS” (Dizal (Jiangsu) Pharmaceutical Co., Ltd., priority 2018, published 2023) can be followed below.

Holding throughout (assay type): cell-based
Experiment [1] addresses T1, human EGFR exon 20 H773_V774insNPH (Homo sapiens, UniProt P00533, INS773NPH).
T1 construct: host or cells: Ba/F3
As to the kind of experiment: EGFR Exon20 NPH insertion cellular phosphorylation inhibition (MSD pEGFR Y1068/total EGFR).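 Further: IL3-independent Ba/F3 cells with constitutively phosphorylated EGFR, compound exposure at 37 °C under 5% CO2, electrochemiluminescent MSD measurement of the p-EGFR to total EGFR ratio.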 To be noted: Ba/F3 EGFR NPH ins cells, 4 h compound, p-EGFR(Y1068)/total EGFR.

The target in experiment [2] is T2, human EGFR exon 20 V769_D770insASV (Homo sapiens, UniProt P00533, INS769ASV).
T2 construct: expressed in transfected cells; host or cells: Ba/F3 (DSMZ ACC-300), lentiviral transduction, puromycin selection, IL3 depletion
T2 sequence (P00533 with tags, fused parts or gaps INS769ASV): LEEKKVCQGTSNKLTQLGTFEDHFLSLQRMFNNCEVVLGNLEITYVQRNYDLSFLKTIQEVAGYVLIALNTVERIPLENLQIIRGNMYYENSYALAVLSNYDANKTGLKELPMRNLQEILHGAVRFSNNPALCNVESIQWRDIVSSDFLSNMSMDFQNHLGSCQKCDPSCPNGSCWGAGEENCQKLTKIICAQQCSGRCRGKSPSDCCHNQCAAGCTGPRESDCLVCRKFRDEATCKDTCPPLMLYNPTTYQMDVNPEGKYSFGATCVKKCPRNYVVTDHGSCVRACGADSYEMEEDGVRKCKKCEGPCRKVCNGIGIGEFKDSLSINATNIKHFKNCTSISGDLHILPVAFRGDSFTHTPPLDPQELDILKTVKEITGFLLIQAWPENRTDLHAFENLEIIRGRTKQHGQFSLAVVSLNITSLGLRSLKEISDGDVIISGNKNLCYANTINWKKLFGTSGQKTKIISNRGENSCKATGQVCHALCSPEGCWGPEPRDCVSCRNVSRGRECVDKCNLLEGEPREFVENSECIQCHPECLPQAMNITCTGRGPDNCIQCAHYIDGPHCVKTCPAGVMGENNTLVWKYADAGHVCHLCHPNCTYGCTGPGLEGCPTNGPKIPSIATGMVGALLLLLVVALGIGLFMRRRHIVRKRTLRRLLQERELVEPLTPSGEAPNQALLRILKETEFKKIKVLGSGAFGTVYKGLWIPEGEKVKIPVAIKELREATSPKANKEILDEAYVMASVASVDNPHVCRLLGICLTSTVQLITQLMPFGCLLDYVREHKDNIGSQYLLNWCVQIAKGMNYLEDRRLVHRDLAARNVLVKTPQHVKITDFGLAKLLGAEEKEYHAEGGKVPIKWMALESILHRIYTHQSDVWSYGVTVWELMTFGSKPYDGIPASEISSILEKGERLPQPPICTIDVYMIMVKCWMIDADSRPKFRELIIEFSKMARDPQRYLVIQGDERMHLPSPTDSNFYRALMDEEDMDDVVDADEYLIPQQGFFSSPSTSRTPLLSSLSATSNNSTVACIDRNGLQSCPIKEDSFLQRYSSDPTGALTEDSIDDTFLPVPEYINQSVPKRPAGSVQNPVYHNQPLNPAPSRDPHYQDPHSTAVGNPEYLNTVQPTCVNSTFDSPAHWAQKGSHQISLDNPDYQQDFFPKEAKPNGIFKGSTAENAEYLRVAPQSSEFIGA
As to the kind of experiment: EGFR Exon20 ASV insertion cellular phosphorylation inhibition (MSD pEGFR Y1068/total EGFR).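 Further: electrochemiluminescent readout on an MSD SECTOR Imager, IL3-independent transduced cells in medium with 1% FBS, compound concentration series at 37 °C and 5% CO2.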 The following applies: Ba/F3 EGFR ASV ins cells, 4 h compound, p-EGFR(Y1068)/total EGFR.

For a further experiment, the target named is T3, EGFR L858R&T790M (Homo sapiens, UniProt P00533, L858R/T790M).
T3 construct: host or cells: NCI-H1975
T3 sequence (P00533 25-1210 T790M/L858R): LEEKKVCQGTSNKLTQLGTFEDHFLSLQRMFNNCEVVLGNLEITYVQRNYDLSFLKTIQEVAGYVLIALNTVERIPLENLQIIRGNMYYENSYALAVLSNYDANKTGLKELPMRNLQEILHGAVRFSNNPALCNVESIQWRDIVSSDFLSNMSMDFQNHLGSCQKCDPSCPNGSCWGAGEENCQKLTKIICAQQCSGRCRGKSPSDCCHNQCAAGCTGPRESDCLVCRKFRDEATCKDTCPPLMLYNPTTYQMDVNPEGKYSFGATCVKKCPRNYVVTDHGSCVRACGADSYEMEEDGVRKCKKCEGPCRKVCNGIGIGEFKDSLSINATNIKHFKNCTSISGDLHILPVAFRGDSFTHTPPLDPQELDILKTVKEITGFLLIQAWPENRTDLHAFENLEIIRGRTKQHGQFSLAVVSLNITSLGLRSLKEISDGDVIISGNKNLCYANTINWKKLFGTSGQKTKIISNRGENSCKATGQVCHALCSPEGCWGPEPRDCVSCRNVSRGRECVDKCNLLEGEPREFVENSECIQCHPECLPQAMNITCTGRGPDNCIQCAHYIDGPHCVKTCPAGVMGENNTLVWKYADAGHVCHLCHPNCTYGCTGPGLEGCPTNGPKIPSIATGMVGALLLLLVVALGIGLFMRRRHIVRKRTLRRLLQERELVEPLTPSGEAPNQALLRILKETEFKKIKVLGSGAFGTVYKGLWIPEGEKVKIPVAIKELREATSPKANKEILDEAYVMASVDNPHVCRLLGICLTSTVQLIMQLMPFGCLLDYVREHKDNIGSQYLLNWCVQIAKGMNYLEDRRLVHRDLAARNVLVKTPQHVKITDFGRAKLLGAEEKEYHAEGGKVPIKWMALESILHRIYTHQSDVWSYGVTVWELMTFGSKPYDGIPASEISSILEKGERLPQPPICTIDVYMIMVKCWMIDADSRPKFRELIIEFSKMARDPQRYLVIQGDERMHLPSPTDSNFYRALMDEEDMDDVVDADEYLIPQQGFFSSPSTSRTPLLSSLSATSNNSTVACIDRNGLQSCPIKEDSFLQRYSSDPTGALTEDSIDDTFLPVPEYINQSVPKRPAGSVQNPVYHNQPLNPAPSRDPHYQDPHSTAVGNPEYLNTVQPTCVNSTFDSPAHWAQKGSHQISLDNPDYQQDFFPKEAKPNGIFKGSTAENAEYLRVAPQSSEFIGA
Nature of the experiment: EGFR L858R and T790M cellular phosphorylation inhibition in NCI-H1975 (MSD).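 Further: phosphorylated and total EGFR detected by electrochemiluminescence, cells exposed to compound in medium containing 1% FBS at 37 °C.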 The following applies: NCI-H1975 cells, 4 h compound, p-EGFR(Y1068)/total EGFR; read-out: EGFR L858R and T790M mutation IC50.

Experiment [3] concerns the target T4, human Her2 exon 20 insertion mutation YVMA (Homo sapiens, UniProt P04626, INS775YVMA).
T4 construct: expressed in transfected cells; host or cells: NIH-3T3, lentiviral transduction, puromycin selection
Nature of the experiment: Her2 Exon 20 YVMA insertion cellular phosphorylation inhibition (MSD p-Her2 Y1248/total Her2).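 Further: lentivirally transduced NIH-3T3 cells in 1% FBS medium, electrochemiluminescent MSD read-out, graded compound concentrations at 37 °C.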 To be noted: Her2 YVMAins cells, 4 h compound.

In the next experiment the target is T5, WT EGFR (Homo sapiens, UniProt P00533).
T5 construct: host or cells: A-431
T5 sequence (P00533 25-1210): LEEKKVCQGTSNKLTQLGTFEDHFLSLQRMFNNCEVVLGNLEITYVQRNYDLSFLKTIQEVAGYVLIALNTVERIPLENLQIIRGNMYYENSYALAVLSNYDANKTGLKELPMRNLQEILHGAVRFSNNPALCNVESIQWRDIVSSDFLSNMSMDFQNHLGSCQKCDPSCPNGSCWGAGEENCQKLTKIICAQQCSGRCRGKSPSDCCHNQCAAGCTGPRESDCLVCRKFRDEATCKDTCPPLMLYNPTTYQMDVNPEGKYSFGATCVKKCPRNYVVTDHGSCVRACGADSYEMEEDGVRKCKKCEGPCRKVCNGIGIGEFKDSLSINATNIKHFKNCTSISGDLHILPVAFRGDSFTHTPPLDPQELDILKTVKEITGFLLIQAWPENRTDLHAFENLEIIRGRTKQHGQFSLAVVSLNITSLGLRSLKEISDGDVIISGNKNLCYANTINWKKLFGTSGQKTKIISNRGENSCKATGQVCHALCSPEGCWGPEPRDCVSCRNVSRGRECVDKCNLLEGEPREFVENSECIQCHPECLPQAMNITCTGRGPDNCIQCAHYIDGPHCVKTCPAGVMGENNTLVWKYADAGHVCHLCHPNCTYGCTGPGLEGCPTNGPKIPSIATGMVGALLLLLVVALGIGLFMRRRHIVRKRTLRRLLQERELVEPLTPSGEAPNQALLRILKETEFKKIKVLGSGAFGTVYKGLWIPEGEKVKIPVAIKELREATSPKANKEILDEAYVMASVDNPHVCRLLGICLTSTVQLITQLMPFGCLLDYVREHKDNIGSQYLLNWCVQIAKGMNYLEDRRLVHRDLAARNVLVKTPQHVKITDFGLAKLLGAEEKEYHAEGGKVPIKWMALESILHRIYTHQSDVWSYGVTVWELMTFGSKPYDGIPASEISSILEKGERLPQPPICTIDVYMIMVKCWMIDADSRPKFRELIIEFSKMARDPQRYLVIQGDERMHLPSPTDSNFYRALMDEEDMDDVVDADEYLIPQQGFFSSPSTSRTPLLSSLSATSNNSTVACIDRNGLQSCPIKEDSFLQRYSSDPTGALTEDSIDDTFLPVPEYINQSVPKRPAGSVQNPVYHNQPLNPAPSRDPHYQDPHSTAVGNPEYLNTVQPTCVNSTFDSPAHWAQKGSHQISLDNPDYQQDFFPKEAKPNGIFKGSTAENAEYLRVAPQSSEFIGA
Nature of the experiment: WT EGFR cellular phosphorylation inhibition in A-431 (hEGF stimulated, MSD).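 Further: electrochemiluminescence read-out of EGFR Tyr1068 phosphorylation expressed as ratio to total EGFR, cells kept in medium with 1% FBS, compounds tested as a concentration series.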 To be noted: A431 cells, 4 h compound, then 100 ng/ml hEGF 10 min.

Another experiment has as its system Ba/F3 EGFR NPH ins cells. Nature of the experiment: Cell proliferation, Ba/F3 EGFR NPH ins (CellTiter-Glo, 72 h).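 Further: IL3-independent cells carrying constitutively phosphorylated EGFR, compound dilution series, viable cells quantified by ATP luminescence, growth relative to DMSO wells after subtracting pre-dosing (day 0) baseline.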 To be noted: Ba/F3 EGFR, 72 h. (In general: ATP-based viability assays read luminescence as a measure of living cells.)
Another experiment concerns Ba/F3 EGFR ASV ins cells. As to the kind of experiment: Cell proliferation, Ba/F3 EGFR ASV ins (CellTiter-Glo, 72 h).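 Further: IL3-independent Ba/F3 cells transduced with EGFR V769_D770insASV, cellular ATP luminescence after compound exposure, growth relative to DMSO control with the day-0 baseline reading subtracted.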 The following applies: Ba/F3 EGFR, 72 h.
Experiment [4] has as its system NCI-H1975 EGFR L858R/T790M cells. As to the kind of experiment: Cell proliferation, NCI-H1975 EGFR L858R/T790M (CellTiter-Glo, 72 h).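 Further: viable cells quantified by luciferase-based ATP luminescence, proliferation expressed relative to DMSO-treated wells (100%) after subtracting a parallel plate read at the time of dosing.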 To be noted: Homo sapiens, NCI-H1975, 72 h.
Experiment [5] deals with Her2 exon 20 insertion YVMA transduced NIH-3T3 cell line. Nature of the experiment: Cell proliferation, Her2 YVMAins NIH-3T3 (CellTiter-Glo, 72 h).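 Further: viable cells quantified by ATP luminescence, growth over a day-zero baseline plate expressed as percent of DMSO control growth, compound dilution series in 10% FBS medium.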 The following applies: Mus musculus, NIH3T3, 72 h, Her2 YVMAins cells, 72 h proliferation; read-out: Her2 Exon 20 YVMA insertion GI50.
In a further experiment the test system is WT EGFR cell line A-431. As to the kind of experiment: Cell proliferation, WT EGFR A431 (CellTiter-Glo, 72 h).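 Further: proliferation from a luminescent ATP viability signal, expressed as 100 × (treated minus time-zero plate) over (DMSO control minus time-zero plate), cells grown with 10% FBS.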 The following applies: Homo sapiens, A-431, 72 h.
The next experiment relates to OCI-LY-10 cells. As to the kind of experiment: BTK (wt) cell proliferation, OCI-LY-10 (CellTiter-Glo, 72 h).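 Further: viable cells quantified via cellular ATP luminescence, proliferation given as percent of DMSO control after subtracting a duplicate plate read at time of dosing.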 To be noted: Homo sapiens, OCI-Ly10, 72 h, OCI-LY-10 cells, 72 h, CellTiter-Glo; read-out: BTK WT OCI-LY-10 GI50.
The test system of a further experiment is TMD-8 cells. As to the kind of experiment: BTK (wt) cell proliferation, TMD-8 (CellTiter-Glo, 72 h).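 Further: viable cells quantified by ATP-based luminescence, proliferation expressed as percent of DMSO control after subtracting a time-zero baseline plate read at dosing.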 The following applies: Homo sapiens, TMD8, 72 h, TMD-8 cells, 72 h, CellTiter-Glo; read-out: BTK WT TMD-8 GI50.
Another experiment concerns Ri-1 cells. As to the kind of experiment: BTK (wt) cell proliferation, Ri-1 (CellTiter-Glo, 72 h).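 Further: viable cells quantified as cellular ATP luminescence, proliferation normalized to a time-zero plate and the DMSO control, compounds tested across a dilution series.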 To be noted: Ri-1, 72 h, Ri-1 cells, 72 h, CellTiter-Glo; read-out: BTK WT Ri-1 GI50.
A further experiment has as its system DB cells. As to the kind of experiment: BTK (wt) cell proliferation, DB (CellTiter-Glo, 72 h).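 Further: DB cells in 384-well plates given a dilution series of compound, viable cells read by ATP luminescence, growth expressed versus DMSO control after subtracting a time-zero plate reading.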 The following applies: Homo sapiens, DB, DB cells, CellTiter-Glo, read-out: Non-BCR activated DB GI50.
Where [6] appears, read: Ba/F3 EGFR NPH ins, 72 h proliferation, read-out: EGFR Exon20 NPH insertion GI50.
Setting [7] is: Ba/F3 EGFR ASV ins, 72 h proliferation, read-out: EGFR Exon20 ASV insertion GI50.
[8] abbreviates: NCI-H1975, 72 h proliferation, read-out: EGFR L858R and T790M mutation GI50.
Setting [9] is: A431, 72 h proliferation, read-out: EGFR WT A431 GI50.

Each structure is given as a SMILES string. Where a name gives a salt, the structure may show the parent alone. Read-outs that look alike come from different tables or passages of the source.

T1 sequence (P00533 with tags, fused parts or gaps INS773NPH): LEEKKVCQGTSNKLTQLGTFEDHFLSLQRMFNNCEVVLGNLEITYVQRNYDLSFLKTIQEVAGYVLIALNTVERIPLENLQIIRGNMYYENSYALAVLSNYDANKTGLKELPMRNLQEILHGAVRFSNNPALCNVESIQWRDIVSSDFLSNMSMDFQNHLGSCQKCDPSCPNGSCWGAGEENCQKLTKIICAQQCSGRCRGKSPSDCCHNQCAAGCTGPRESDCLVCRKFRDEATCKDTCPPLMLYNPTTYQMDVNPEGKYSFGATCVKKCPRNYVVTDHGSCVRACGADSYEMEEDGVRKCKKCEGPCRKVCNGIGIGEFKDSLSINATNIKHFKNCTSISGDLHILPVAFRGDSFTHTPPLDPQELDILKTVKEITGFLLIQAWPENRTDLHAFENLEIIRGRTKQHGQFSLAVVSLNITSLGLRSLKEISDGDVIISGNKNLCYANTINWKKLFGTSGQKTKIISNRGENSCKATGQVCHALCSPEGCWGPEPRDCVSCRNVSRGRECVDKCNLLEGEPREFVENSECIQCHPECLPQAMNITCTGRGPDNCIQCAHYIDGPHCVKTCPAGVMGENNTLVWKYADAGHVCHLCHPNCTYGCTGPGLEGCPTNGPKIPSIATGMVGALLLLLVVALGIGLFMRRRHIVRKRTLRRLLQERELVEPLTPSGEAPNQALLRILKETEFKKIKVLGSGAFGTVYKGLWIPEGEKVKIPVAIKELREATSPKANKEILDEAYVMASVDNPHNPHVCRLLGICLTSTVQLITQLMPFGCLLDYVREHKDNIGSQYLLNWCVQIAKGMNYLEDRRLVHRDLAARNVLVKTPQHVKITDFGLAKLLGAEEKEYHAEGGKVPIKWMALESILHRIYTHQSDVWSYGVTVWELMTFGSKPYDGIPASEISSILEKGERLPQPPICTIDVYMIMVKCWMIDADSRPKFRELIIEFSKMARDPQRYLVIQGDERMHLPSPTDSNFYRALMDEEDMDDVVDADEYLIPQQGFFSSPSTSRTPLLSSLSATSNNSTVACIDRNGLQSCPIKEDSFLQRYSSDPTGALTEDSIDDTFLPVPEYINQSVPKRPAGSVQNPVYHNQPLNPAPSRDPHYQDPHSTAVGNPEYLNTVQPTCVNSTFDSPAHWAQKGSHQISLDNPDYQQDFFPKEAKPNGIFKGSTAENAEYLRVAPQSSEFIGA

In general, IC50 refers to the concentration at which inhibition is half-maximal. As a reminder, the GI50 is the concentration that inhibits growth by half. For the molecule `C=CC(=O)Nc1cc(Nc2ncnc(Nc3cc(Cl)c(F)cc3C3(O)CCC3)n2)c(OC)cc1N(C)CCN(C)C` [Compound 72, N-(5-(4-(5-chloro-4-fluoro-2-(1-hydroxycyclobutyl)phenylamino)-1,3,5-triazin-2-ylamino)-2-((2-(dimethylamino)ethyl)(methyl)amino)-4-methoxyphenyl)acrylamide formic acid salt], the half-maximal inhibitory concentration (IC50) in experiment [1] turned out to be 18.7 nM; in [2], 8 nM; on EGFR L858R&T790M, 0.6 nM; in experiment [3], 8.9 nM; against WT EGFR it was 26.2 nM. In addition, the GI50 in the experiment on Ba/F3 EGFR NPH ins cells (read-out: EGFR Exon20 NPH insertion GI50 (nM)) stood at 46.1 nM; in the experiment with Ba/F3 EGFR ASV ins cells (read-out: EGFR Exon20 ASV insertion GI50 (nM)), 42.3 nM; in experiment [4] (read-out: EGFR L858R and T790M mutation GI50 (nM)), 4.1 nM; in experiment [5] it was 38.9 nM; in the experiment with WT EGFR cell line A-431 (read-out: EGFR WT A431 GI50 (nM)), 10.4 nM; in the experiment on OCI-LY-10 cells it was 2.9 nM. The 50% growth inhibitory concentration (GI50) was 7.3 nM with TMD-8 cells, 33.3 nM in the experiment on Ri-1 cells and greater than 3000 nM in the experiment on DB cells.
Consider `C=CC(=O)Nc1cc(Nc2ncc(Cl)c(Nc3cc(Cl)c(F)cc3C(C)(C)O)n2)c(OC)cc1N1CC[C@@H](N(C)C)C1` [Compound 74, (R)-N-(5-(5-chloro-4-(5-chloro-4-fluoro-2-(2-hydroxypropan-2-yl)phenylamino)pyrimidin-2-ylamino)-2-(3-(dimethylamino)pyrrolidin-1-yl)-4-methoxyphenyl) acrylamide], for which the IC50 worked out at 65.1 nM in experiment [1]; 34.4 nM in [2]; 0.4 nM on EGFR L858R&T790M; 52.6 nM in [3]; 133 nM at WT EGFR. For the same molecule, the GI50 in the experiment on Ba/F3 EGFR NPH ins cells (setting [6]) came to 76.8 nM; in the experiment on Ba/F3 EGFR ASV ins cells (setting [7]) it was 86.6 nM; in experiment [4] (setting [8]), 6 nM; in [5], 155 nM; in the experiment with WT EGFR cell line A-431 (setting [9]), 43 nM; in the experiment with OCI-LY-10 cells it was 3.9 nM. In addition, the GI50 is 9.1 nM with TMD-8 cells, 82 nM in the experiment with Ri-1 cells and greater than 3000 nM in the experiment with DB cells.
For the molecule `C=CC(=O)Nc1cc(Nc2ncnc(Nc3cc(C4CC4)c(F)cc3C(C)(C)O)n2)c(OC)cc1N(C)CCN(C)C` [Compound 75, N-(5-(4-(5-cyclopropyl-4-fluoro-2-(2-hydroxypropan-2-yl)phenylamino)-1,3,5-triazin-2-ylamino)-2-((2-(dimethylamino)ethyl)(methyl)amino)-4-methoxyphenyl)acrylamide], the IC50 in [1] is 27.9 nM; in [2], 18.5 nM; on EGFR L858R&T790M, 3.7 nM; in [3] it was 10.8 nM; at WT EGFR it was 42.6 nM. Further, the GI50 in the experiment on Ba/F3 EGFR NPH ins cells (setting [6]) was found to be 73 nM; in the experiment on Ba/F3 EGFR ASV ins cells (setting [7]) it was 90.6 nM; in experiment [4] (setting [8]), 19.2 nM; in experiment [5], 29.9 nM; with WT EGFR cell line A-431 (setting [9]), 11.6 nM; with OCI-LY-10 cells, 45.5 nM. The GI50 in the experiment on TMD-8 cells is 133 nM; in the experiment on Ri-1 cells, 250 nM; with DB cells it was greater than 3000 nM.
Turning to `C=CC(=O)Nc1cc(Nc2nccc(Nc3cc(Cl)c(F)cc3C(C)(C)O)n2)c(OC)cc1N1CC(F)(F)C[C@@H]1CN(C)C` [Compound 82, (R)-N-(5-(4-(5-chloro-4-fluoro-2-(2-hydroxypropan-2-yl)phenylamino)pyrimidin-2-ylamino)-2-(2-((dimethylamino)methyl)-4,4-difluoropyrrolidin-1-yl)-4-methoxyphenyl)acrylamide], the IC50 in experiment [1] turned out to be 13.8 nM; in experiment [2], 17.2 nM; on EGFR L858R&T790M, 0.9 nM; in experiment [3] it was 7 nM; at WT EGFR, 97.8 nM. For the same molecule, the GI50 is 35.8 nM in the experiment on Ba/F3 EGFR NPH ins cells (setting [6]); 77.7 nM in the experiment on Ba/F3 EGFR ASV ins cells (setting [7]); 3.6 nM in experiment [4] (setting [8]); 82.4 nM in experiment [5]; 42 nM with WT EGFR cell line A-431 (setting [9]); 76.1 nM with OCI-LY-10 cells. Moreover, the GI50 in the experiment on TMD-8 cells was 203 nM; in the experiment with Ri-1 cells, 310 nM; with DB cells, greater than 3000 nM.
For `C=CC(=O)Nc1cc(Nc2ncc(C(F)(F)F)c(Nc3cc(Cl)c(F)cc3C(C)(C)O)n2)c(OC)cc1N1CC[C@@H](N(C)C)C1` [Compound 84, (R)-N-(5-(4-(5-chloro-4-fluoro-2-(2-hydroxypropan-2-yl)phenylamino)-5-(trifluoromethyl)pyrimidin-2-ylamino)-2-(3-(dimethylamino)pyrrolidin-1-yl)-4-methoxyphenyl)acrylamide], the IC50 in [1] was determined as 259 nM; in [2] it was 116 nM; at EGFR L858R&T790M, 0.4 nM; in experiment [3], 1560 nM; on WT EGFR it was 604 nM. In addition, the GI50 came out at 191 nM in the experiment on Ba/F3 EGFR NPH ins cells (setting [6]); 450 nM in the experiment with Ba/F3 EGFR ASV ins cells (setting [7]); 19.1 nM in [4] (setting [8]); 341 nM in experiment [5]; 232 nM in the experiment with WT EGFR cell line A-431 (setting [9]); 31.2 nM with OCI-LY-10 cells. Moreover, the values for the GI50 with TMD-8 cells, in the experiment with Ri-1 cells and in the experiment on DB cells were 39.8 nM, 137 nM and greater than 3000 nM, respectively.
`C=CC(=O)Nc1cc(Nc2ncc(C#N)c(Nc3cc(Cl)c(F)cc3C(C)(C)O)n2)c(OC)cc1N1CC[C@@H](N(C)C)C1` [Compound 85, (R)-N (5-(4-(5-chloro-4-fluoro-2-(2-hydroxypropan-2-yl)phenylamino)-5-cyanopyrimidin-2-ylamino)-2-(3-(dimethylamino)pyrrolidin-1-yl)-4-methoxyphenyl)acrylamide]: the half-inhibitory concentration (IC50) in experiment [1] was determined as 35.5 nM; in experiment [2], 32.1 nM; on EGFR L858R&T790M, 0.5 nM; in experiment [3], 71.6 nM; at WT EGFR it was 68.5 nM. For the same molecule, the GI50 was 63.1 nM with Ba/F3 EGFR NPH ins cells (setting [6]); 80.7 nM with Ba/F3 EGFR ASV ins cells (setting [7]); 22.4 nM in experiment [4] (setting [8]); 129 nM in experiment [5]; 51.1 nM in the experiment with WT EGFR cell line A-431 (setting [9]); 1.1 nM in the experiment on OCI-LY-10 cells. In addition, the GI50 in the experiment with TMD-8 cells was 2.6 nM; in the experiment on Ri-1 cells it was 11 nM; in the experiment on DB cells it was greater than 3000 nM.
`C=CC(=O)Nc1cc(Nc2nccc(Nc3cc(Cl)c(F)cc3C(C)(C)O)n2)c(OC)cc1N1CC[C@H](N(C)C)C1` [Compound 87, (S)-N-(5-(4-(5-chloro-4-fluoro-2-(2-hydroxypropan-2-yl)phenylamino)pyrimidin-2-ylamino)-2-(3-(dimethylamino)pyrrolidin-1-yl)-4-methoxyphenyl)a crylamide]: the IC50 stood at 51.2 nM in experiment [1]; 51.9 nM in experiment [2]; 1 nM on EGFR L858R&T790M; 21.2 nM in experiment [3]; 362 nM against WT EGFR. Besides, the concentration for 50% growth inhibition (GI50) in the experiment with Ba/F3 EGFR NPH ins cells (setting [6]) was determined as 140 nM; in the experiment with Ba/F3 EGFR ASV ins cells (setting [7]) it was 156 nM; in experiment [4] (setting [8]) it was 24.4 nM; in experiment [5], 827 nM; in the experiment on WT EGFR cell line A-431 (setting [9]), 84.8 nM; in the experiment with OCI-LY-10 cells, 22.3 nM. The 50% growth inhibitory concentration (GI50) was determined as 13.7 nM in the experiment with TMD-8 cells, 48 nM with Ri-1 cells and 1210 nM in the experiment with DB cells.
